Experimental data reported in PubChem BioAssay (NCI).
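Step 1: Grow cells in 96-well plates. Step 2: Expose to compound for 48 hours at 5 concentrations. Step 3: Interpolate endpoints linearly; if unreached, use highest concentration. The concentration for 50% growth inhibition is given as GI50. TGI marks complete inhibition of growth.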

Key:
Assay in all cases: growth of human tumour cells (NCI), 48 h
[1] = tested on: CAKI-1 renal
[2] = tested on: UO-31 renal
[3] = tested on: MALME-3M melanoma
[4] = tested on: OVCAR-3 ovarian
[5] = tested on: 786-0 renal
[6] = tested on: M14 melanoma
[7] = tested on: HCC-2998 colon
[8] = tested on: BT-549 breast
[9] = tested on: HL-60(TB) leukemia
[10] = tested on: SNB-75 CNS
[11] = tested on: OVCAR-5 ovarian
[12] = tested on: KM12 colon
[13] = tested on: RXF 393 renal
[14] = tested on: MOLT-4 leukemia
[15] = tested on: SK-MEL-2 melanoma
[16] = tested on: SNB-19 CNS
[17] = tested on: HOP-92 NSCLC
[18] = tested on: SR leukemia
[19] = tested on: HOP-62 NSCLC
[20] = tested on: SN12C renal
[21] = tested on: DU-145 prostate
[22] = tested on: NCI/ADR-RES ovarian
[23] = tested on: OVCAR-8 ovarian
[24] = tested on: OVCAR-4 ovarian
[25] = tested on: ACHN renal
[26] = tested on: HS 578T breast
[27] = tested on: U251 CNS
[28] = tested on: EKVX NSCLC
[29] = tested on: TK-10 renal
[30] = tested on: UACC-62 melanoma
[31] = tested on: MDA-MB-435
[32] = tested on: SF-295 CNS
[33] = tested on: SK-MEL-5 melanoma
[34] = tested on: A549 NSCLC
[35] = tested on: HCT-15 colon
[36] = tested on: K-562 leukemia
[37] = tested on: CCRF-CEM leukemia
[38] = tested on: IGROV1 ovarian
[39] = tested on: NCI-H460 lung
[40] = tested on: A498 renal
[41] = tested on: HCT-116 colon
[42] = tested on: PC-3 prostate
[43] = tested on: LOX IMVI melanoma
[44] = tested on: SK-MEL-28 melanoma
[45] = tested on: MDA-MB-231 breast
[46] = tested on: MCF7 breast
[47] = tested on: HT29 colon
[48] = tested on: RPMI-8226 leukemia
[49] = tested on: NCI-H522 lung
[50] = tested on: NCI-H23 lung
[51] = tested on: SF-539 CNS
[52] = tested on: T-47D breast
[53] = tested on: NCI-H226 lung
[54] = tested on: SK-OV-3 ovarian
[55] = tested on: SF-268 CNS
[56] = tested on: SW-620 colon
[57] = tested on: UACC-257 melanoma
[58] = tested on: COLO 205 colon

SMILES: CCSC[C@@H]1C[C@](O)(c2ccc(Cl)cc2)[C@@H](c2ccc(Cl)cc2)O1
- GI50 [1]: 27.6 µM
- TGI [1]: 63.2 µM
- GI50 [2]: 16.5 µM
- TGI [2]: 30.4 µM
- GI50 [3]: 15.2 µM
- TGI [3]: 29.8 µM
- GI50 [4]: 18.8 µM
- TGI [4]: 36.1 µM
- GI50 [5]: 17 µM
- TGI [5]: 31.9 µM
- GI50 [6]: 15.3 µM
- TGI [6]: 29.6 µM
- GI50 [7]: 20.3 µM
- TGI [7]: 39.3 µM
- GI50 [8]: 15.2 µM
- TGI [8]: 28.9 µM
- GI50 [9]: 15.2 µM
- TGI [9]: 36 µM
- GI50 [10]: 16.3 µM
- TGI [10]: 32.4 µM
- GI50 [11]: 18.2 µM
- TGI [11]: 34.3 µM
- GI50 [12]: 15.4 µM
- TGI [12]: 30.9 µM
- GI50 [13]: 23.2 µM
- TGI [13]: 38.5 µM
- GI50 [14]: 17.7 µM
- TGI [14]: 43.6 µM
- GI50 [15]: 16 µM
- TGI [15]: 35 µM
- GI50 [16]: 18.8 µM
- TGI [16]: 50 µM
- GI50 [17]: 20.9 µM
- TGI [17]: 36.9 µM
- GI50 [18]: 11.1 µM
- TGI [18]: 28.2 µM
- GI50 [19]: 16.7 µM
- TGI [19]: 30.7 µM
- GI50 [20]: 17.6 µM
- TGI [20]: 34.6 µM
- GI50 [21]: 15 µM
- TGI [21]: 30 µM
- GI50 [22]: 20.5 µM
- TGI [22]: 43.6 µM
- GI50 [23]: 17.4 µM
- TGI [23]: 45 µM
- GI50 [24]: 16.7 µM
- TGI [24]: 32.1 µM
- GI50 [25]: 19.6 µM
- TGI [25]: 36.6 µM
- GI50 [26]: 18 µM
- TGI [26]: 39.6 µM
- GI50 [27]: 18.3 µM
- TGI [27]: 36.2 µM
- GI50 [28]: 17.3 µM
- TGI [28]: 40.7 µM
- GI50 [29]: 17.8 µM
- TGI [29]: 36.3 µM
- GI50 [30]: 13.9 µM
- TGI [30]: 30.8 µM
- GI50 [31]: 19.2 µM
- TGI [31]: 40.1 µM
- GI50 [32]: 18.9 µM
- TGI [32]: 35.4 µM
- GI50 [33]: 15.3 µM
- TGI [33]: 28.7 µM
- GI50 [34]: 17.3 µM
- TGI [34]: 33.2 µM
- GI50 [35]: 18.8 µM
- TGI [35]: 38.7 µM
- GI50 [36]: 18.8 µM
- TGI [36]: 44.2 µM
- GI50 [37]: 20.5 µM
- TGI [37]: 59.4 µM
- GI50 [38]: 15.3 µM
- TGI [38]: 32.3 µM
- GI50 [39]: 17.3 µM
- TGI [39]: 34.1 µM
- GI50 [40]: 17.8 µM
- TGI [40]: 32.1 µM
- GI50 [41]: 12.6 µM
- TGI [41]: 25.1 µM
- GI50 [42]: 20 µM
- TGI [42]: 39.1 µM
- GI50 [43]: 18.5 µM
- TGI [43]: 40.7 µM
- GI50 [44]: 16.2 µM
- TGI [44]: 32.8 µM
- GI50 [45]: 18.2 µM
- TGI [45]: 35.4 µM
- GI50 [46]: 21.8 µM
- TGI [46]: 48.5 µM
- GI50 [47]: 15.6 µM
- TGI [47]: 30.8 µM
- GI50 [48]: 20.8 µM
- TGI [48]: 51.2 µM
- GI50 [49]: 15.5 µM
- TGI [49]: 31.4 µM
- GI50 [50]: 19.3 µM
- TGI [50]: 41.6 µM
- GI50 [51]: 16.5 µM
- TGI [51]: 31.1 µM
- GI50 [52]: 14.8 µM
- TGI [52]: 38.6 µM
- GI50 [53]: 17.8 µM
- TGI [53]: 37.3 µM
- GI50 [54]: 22.4 µM
- TGI [54]: 60.2 µM
- GI50 [55]: 18.5 µM
- TGI [55]: 35.7 µM
- GI50 [56]: 14.4 µM
- TGI [56]: 33.6 µM
- GI50 [57]: 15.1 µM
- TGI [57]: 30.1 µM
- GI50 [58]: 14.4 µM
- TGI [58]: 28.7 µM

SMILES: COc1cc(CCC[P+](c2ccccc2)(c2ccccc2)c2ccccc2)c(OC)c2c1OCO2
- GI50 [1]: 2.42 µM
- TGI [1]: 7.18 µM
- GI50 [2]: 10.8 µM
- TGI [2]: 44.1 µM
- GI50 [3]: 0.602 µM
- TGI [3]: 6.92 µM
- GI50 [4]: 0.633 µM
- TGI [4]: 10.7 µM
- GI50 [5]: 3.44 µM
- TGI [5]: 16.5 µM
- GI50 [6]: 1.8 µM
- TGI [6]: 13.7 µM
- GI50 [7]: 2.21 µM
- TGI [7]: 13.3 µM
- GI50 [8]: 1.08 µM
- TGI [8]: 8.5 µM
- GI50 [9]: 0.387 µM
- TGI [9]: 2.35 µM
- GI50 [10]: 1.2 µM
- TGI [10]: 4.59 µM
- GI50 [11]: 2.38 µM
- TGI [11]: 37 µM
- GI50 [12]: 0.828 µM
- TGI [12]: 6.59 µM
- GI50 [13]: 2.01 µM
- TGI [13]: 8.43 µM
- GI50 [14]: 3.33 µM
- TGI [14]: 18.9 µM
- GI50 [15]: 1.9 µM
- TGI [15]: 10.5 µM
- GI50 [16]: 1.17 µM
- TGI [16]: 10.9 µM
- GI50 [17]: 1.15 µM
- TGI [17]: 6.88 µM
- GI50 [18]: 1.1 µM
- TGI [18]: 13.3 µM
- GI50 [19]: 2.91 µM
- TGI [19]: 11.3 µM
- GI50 [20]: 2.56 µM
- TGI [20]: 10.5 µM
- GI50 [21]: 3.21 µM
- TGI [21]: 74.5 µM
- GI50 [22]: 77.5 µM
- TGI [22]: > 100 µM
- GI50 [23]: 2.36 µM
- TGI [23]: 24.2 µM
- GI50 [24]: 1.08 µM
- TGI [24]: 16.1 µM
- GI50 [25]: 4.07 µM
- TGI [25]: 21 µM
- GI50 [26]: 1.74 µM
- TGI [26]: 8.54 µM
- GI50 [27]: 1.63 µM
- TGI [27]: 17.5 µM
- GI50 [28]: 2.83 µM
- TGI [28]: 35.2 µM
- GI50 [29]: 4.05 µM
- TGI [29]: 23.3 µM
- GI50 [30]: 0.629 µM
- TGI [30]: 4.27 µM
- GI50 [31]: 0.494 µM
- TGI [31]: 5.91 µM
- GI50 [32]: 2.37 µM
- TGI [32]: 7.39 µM
- GI50 [33]: 1.21 µM
- TGI [33]: 2.5 µM
- GI50 [34]: 3.95 µM
- TGI [34]: 68.9 µM
- GI50 [35]: 13.4 µM
- TGI [35]: > 100 µM
- GI50 [36]: 0.659 µM
- TGI [36]: > 100 µM
- GI50 [37]: 1.61 µM
- TGI [37]: > 100 µM
- GI50 [38]: 1 µM
- TGI [38]: 11.7 µM
- GI50 [39]: 1.81 µM
- TGI [39]: 5.58 µM
- GI50 [40]: 1.41 µM
- TGI [40]: 4.28 µM
- GI50 [41]: 0.989 µM
- TGI [41]: 16.2 µM
- GI50 [42]: 1.55 µM
- TGI [42]: > 100 µM
- GI50 [43]: 2.48 µM
- TGI [43]: 12.1 µM
- GI50 [44]: 0.875 µM
- TGI [44]: 14 µM
- GI50 [45]: 2.11 µM
- TGI [45]: 10.3 µM
- GI50 [46]: 1.82 µM
- TGI [46]: 12.9 µM
- GI50 [47]: 0.812 µM
- TGI [47]: 41 µM
- GI50 [48]: 0.283 µM
- TGI [48]: 1.87 µM
- GI50 [49]: 1.43 µM
- TGI [49]: 12.1 µM
- GI50 [50]: 1.67 µM
- TGI [50]: 10.3 µM
- GI50 [51]: 2.31 µM
- TGI [51]: 12.6 µM
- GI50 [52]: 0.419 µM
- TGI [52]: 14.7 µM
- GI50 [53]: 3.13 µM
- TGI [53]: 21.3 µM
- GI50 [54]: 2.02 µM
- TGI [54]: 6.41 µM
- GI50 [55]: 2.13 µM
- TGI [55]: 13.1 µM
- GI50 [56]: 1.83 µM
- TGI [56]: 11.4 µM
- GI50 [57]: 0.378 µM
- TGI [57]: 6.44 µM
- GI50 [58]: 0.907 µM
- TGI [58]: 3.38 µM
